{"source": "patent US6358885B1", "about": "“Substituted phenylheterocyclic herbicides” (Mississippi State University, priority 1992, dated 2002)", "key": {"bedstraw": {"test_system": "bedstraw", "assay": "Test B preemergence/postemergence greenhouse plant response rating 0 to 10", "assay_type": "in vivo, Galium aparine", "details": "0 to 10 scale", "in_short": "(§1)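 Planted seeds are treated preemergence with compound dissolved in a non-phytotoxic solvent, while postemergence applications go onto plants of two to eighteen cm. Plants stay in the greenhouse twelve to sixteen days and are then rated visually relative to controls.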"}, "rice [1]": {"test_system": "rice", "assay": "Test B preemergence/postemergence greenhouse plant response rating 0 to 10", "assay_type": "in vivo, Oryza sativa", "details": "0 to 10 scale", "in_short": "as §1"}, "crabgrass": {"test_system": "crabgrass", "assay": "Test B preemergence/postemergence greenhouse plant response rating 0 to 10", "assay_type": "in vivo, Digitaria spp.", "details": "0 to 10 scale", "in_short": "as §1"}, "sorghum": {"test_system": "sorghum", "assay": "Test C preemergence/postemergence greenhouse plant response rating 0 to 100", "assay_type": "in vivo, Sorghum bicolor", "details": "POSTEMERGENCE", "in_short": "(§2)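 Compounds in non-phytotoxic solvent applied preemergence to sandy loam one day after planting, postemergence at the 1–4 leaf stage, or to ~2.5 cm floodwater over silt loam.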"}, "purple nutsedge": {"test_system": "purple nutsedge", "assay": "Test B preemergence/postemergence greenhouse plant response rating 0 to 10", "assay_type": "in vivo, Cyperus rotundus", "details": "0 to 10 scale", "in_short": "as §1"}, "barnyardgrass": {"test_system": "barnyardgrass", "assay": "Test C flood test plant response rating 0 to 100", "assay_type": "in vivo, Echinochloa crus-galli", "in_short": "as §2"}, "sugar beet": {"test_system": "sugar beet", "assay": "Test B preemergence/postemergence greenhouse plant response rating 0 to 10", "assay_type": "in vivo, Beta vulgaris", "details": "0 to 10 scale", "in_short": "as §1"}, "rape": {"test_system": "rape", "assay": "Test B preemergence/postemergence greenhouse plant response rating 0 to 10", "assay_type": "in vivo, Brassica napus", "details": "0 to 10 scale", "in_short": "as §1"}, "corn": {"test_system": "corn", "assay": "Test C preemergence/postemergence greenhouse plant response rating 0 to 100", "assay_type": "in vivo, Zea mays", "details": "POSTEMERGENCE", "in_short": "as §2"}, "blackgrass": {"test_system": "blackgrass", "assay": "Test B preemergence/postemergence greenhouse plant response rating 0 to 10", "assay_type": "in vivo, Alopecurus myosuroides", "details": "0 to 10 scale", "in_short": "as §1"}, "pigweed": {"test_system": "pigweed", "assay": "Test C preemergence/postemergence greenhouse plant response rating 0 to 100", "assay_type": "in vivo, Amaranthusretroflexus", "details": "POSTEMERGENCE", "in_short": "as §2"}, "umbrella sedge": {"test_system": "umbrella sedge", "assay": "Test C flood test plant response rating 0 to 100", "assay_type": "in vivo, Cyperus difformis", "in_short": "as §2"}, "cocklebur": {"test_system": "cocklebur", "assay": "Test B preemergence/postemergence greenhouse plant response rating 0 to 10", "assay_type": "in vivo, Xanthium pensylvanicum", "details": "0 to 10 scale", "in_short": "as §1"}, "soybean": {"test_system": "soybean", "assay": "Test B preemergence/postemergence greenhouse plant response rating 0 to 10", "assay_type": "in vivo, Glycine max", "details": "0 to 10 scale", "in_short": "as §1"}, "morningglory": {"test_system": "morningglory", "assay": "Test C preemergence/postemergence greenhouse plant response rating 0 to 100", "assay_type": "in vivo, Ipomoea hederacea", "details": "POSTEMERGENCE", "in_short": "as §2"}, "lambsquarters": {"test_system": "lambsquarters", "assay": "Test B preemergence/postemergence greenhouse plant response rating 0 to 10", "assay_type": "in vivo, Chenopodium album", "details": "0 to 10 scale", "in_short": "as §1"}, "rice [2]": {"test_system": "rice", "assay": "Test C flood test plant response rating 0 to 100", "assay_type": "in vivo, Oryza sativa", "in_short": "as §2"}, "barley": {"test_system": "barley", "assay": "Test B preemergence/postemergence greenhouse plant response rating 0 to 10", "assay_type": "in vivo, Hordeum vulgare", "details": "0 to 10 scale", "in_short": "as §1"}, "[3]": {"details": "POSTEMERGENCE section, flood test, Rate 1 g/ha"}, "[4]": {"details": "POSTEMERGENCE section, flood test, Rate 4 g/ha"}, "[5]": {"details": "Rate 16 g/ha, under POSTEMERGENCE head (flood test species)"}, "[6]": {"details": "flood test species listed under POSTEMERGENCE, 62 g/ha, 0 to 100 scale"}}, "data": [{"smiles": "COCN1C(=O)COc2cc(F)c(-c3nn4c(c3Br)CCCC4)cc21", "note": "[Compound 67]", "values": [{"measurement": "Plant response rating, Bedstraw", "setting": "bedstraw; POSTEMERGENCE, Rate 10 g/ha", "value": 8}, {"measurement": "Plant response rating, Bedstraw", "setting": "bedstraw; POSTEMERGENCE, Rate 50 g/ha", "value": 10}, {"measurement": "Plant response rating, Bedstraw", "setting": "bedstraw; PREEMERGENCE, Rate 10 g/ha", "value": 0}, {"measurement": "Plant response rating, Bedstraw", "setting": "bedstraw; PREEMERGENCE, Rate 50 g/ha", "value": 3}, {"measurement": "Plant response rating, Rice", "setting": "rice [1]; POSTEMERGENCE, Rate 10 g/ha", "value": 6}, {"measurement": "Plant response rating, Rice", "setting": "rice [1]; POSTEMERGENCE, Rate 50 g/ha", "value": 7}, {"measurement": "Plant response rating, Rice", "setting": "rice [1]; PREEMERGENCE, Rate 50 g/ha", "value": 0}, {"measurement": "Plant response rating, Crabgrass", "setting": "crabgrass; POSTEMERGENCE, Rate 10 g/ha", "value": 5}, {"measurement": "Plant response rating, Crabgrass", "setting": "crabgrass; POSTEMERGENCE, Rate 50 g/ha", "value": 6}, {"measurement": "Plant response rating, Crabgrass", "setting": "crabgrass; PREEMERGENCE, Rate 10 g/ha", "value": 0}, {"measurement": "Plant response rating, Crabgrass", "setting": "crabgrass; PREEMERGENCE, Rate 50 g/ha", "value": 2}, {"measurement": "Plant response rating, Sorghum", "setting": "sorghum; 62 g/ha, 0 to 100 scale", "value": 60}, {"measurement": "Plant response rating (0 to 100), Sorghum", "setting": "sorghum; Rate 1 g/ha", "value": 20}, {"measurement": "Plant response rating (0 to 100), Sorghum", "setting": "sorghum; Rate 4 g/ha", "value": 30}, {"measurement": "Plant response rating (0 to 100), Sorghum", "setting": "sorghum; Rate 16 g/ha", "value": 40}, {"measurement": "Plant response rating, Nutsedge", "setting": "purple nutsedge; POSTEMERGENCE, Rate 10 g/ha", "value": 1}, {"measurement": "Plant response rating, Nutsedge", "setting": "purple nutsedge; POSTEMERGENCE, Rate 50 g/ha", "value": 3}, {"measurement": "Plant response rating, Nutsedge", "setting": "purple nutsedge; PREEMERGENCE, Rate 50 g/ha", "value": 0}, {"measurement": "Plant response rating (0 to 100), Barnyardgrass 2", "setting": "barnyardgrass; [3]", "value": 0}, {"measurement": "Plant response rating (0 to 100), Barnyardgrass 2", "setting": "barnyardgrass; [4]", "value": 20}, {"measurement": "Plant response rating (0 to 100), Barnyardgrass 2", "setting": "barnyardgrass; [5]", "value": 90}, {"measurement": "Plant response rating Barnyardgrass 2", "setting": "barnyardgrass; [6]", "value": 95}, {"measurement": "Plant response rating, Sugar beet", "setting": "sugar beet; POSTEMERGENCE, Rate 10 g/ha", "value": 10}, {"measurement": "Plant response rating, Sugar beet", "setting": "sugar beet; POSTEMERGENCE, Rate 50 g/ha", "value": 10}, {"measurement": "Plant response rating, Sugar beet", "setting": "sugar beet; PREEMERGENCE, Rate 50 g/ha", "value": 9}, {"measurement": "Plant response rating, Rape", "setting": "rape; POSTEMERGENCE, Rate 10 g/ha", "value": 9}, {"measurement": "Plant response rating, Rape", "setting": "rape; POSTEMERGENCE, Rate 50 g/ha", "value": 10}, {"measurement": "Plant response rating, Rape", "setting": "rape; PREEMERGENCE, Rate 50 g/ha", "value": 3}, {"measurement": "Plant response rating, Corn", "setting": "corn; 62 g/ha, 0 to 100 scale", "value": 40}, {"measurement": "Plant response rating (0 to 100), Corn", "setting": "corn; Rate 1 g/ha", "value": 10}, {"measurement": "Plant response rating (0 to 100), Corn", "setting": "corn; Rate 4 g/ha", "value": 20}, {"measurement": "Plant response rating (0 to 100), Corn", "setting": "corn; Rate 16 g/ha", "value": 30}, {"measurement": "Plant response rating, Blackgrass", "setting": "blackgrass; POSTEMERGENCE, Rate 10 g/ha", "value": 4}, {"measurement": "Plant response rating, Blackgrass", "setting": "blackgrass; POSTEMERGENCE, Rate 50 g/ha", "value": 5}, {"measurement": "Plant response rating, Blackgrass", "setting": "blackgrass; PREEMERGENCE, Rate 10 g/ha", "value": 3}, {"measurement": "Plant response rating, Blackgrass", "setting": "blackgrass; PREEMERGENCE, Rate 50 g/ha", "value": 8}, {"measurement": "Plant response rating Pigweed", "setting": "pigweed; 62 g/ha, 0 to 100 scale", "value": 100}, {"measurement": "Plant response rating (0 to 100), Pigweed", "setting": "pigweed; Rate 4 g/ha", "value": 70}, {"measurement": "Plant response rating (0 to 100), Pigweed", "setting": "pigweed; Rate 16 g/ha", "value": 100}, {"measurement": "Plant response rating (0 to 100), Umbrella sedge", "setting": "umbrella sedge; [3]", "value": 0}, {"measurement": "Plant response rating (0 to 100), Umbrella sedge", "setting": "umbrella sedge; [4]", "value": 0}, {"measurement": "Plant response rating (0 to 100), Umbrella sedge", "setting": "umbrella sedge; [5]", "value": 30}, {"measurement": "Plant response rating Umbrella sedge", "setting": "umbrella sedge; [6]", "value": 70}, {"measurement": "Plant response rating, Cocklebur", "setting": "cocklebur; POSTEMERGENCE, Rate 10 g/ha", "value": 8}, {"measurement": "Plant response rating, Cocklebur", "setting": "cocklebur; POSTEMERGENCE, Rate 50 g/ha", "value": 9}, {"measurement": "Plant response rating, Cocklebur", "setting": "cocklebur; PREEMERGENCE, Rate 10 g/ha", "value": 0}, {"measurement": "Plant response rating, Cocklebur", "setting": "cocklebur; PREEMERGENCE, Rate 50 g/ha", "value": 0}, {"measurement": "Plant response rating, Soybean", "setting": "soybean; POSTEMERGENCE, Rate 10 g/ha", "value": 8}, {"measurement": "Plant response rating, Soybean", "setting": "soybean; POSTEMERGENCE, Rate 50 g/ha", "value": 9}, {"measurement": "Plant response rating, Soybean", "setting": "soybean; PREEMERGENCE, Rate 50 g/ha", "value": 0}, {"measurement": "Plant response rating, Morningglory", "setting": "morningglory; 62 g/ha, 0 to 100 scale", "value": 100}, {"measurement": "Plant response rating (0 to 100), Morningglory", "setting": "morningglory; Rate 1 g/ha", "value": 50}, {"measurement": "Plant response rating (0 to 100), Morningglory", "setting": "morningglory; Rate 4 g/ha", "value": 70}, {"measurement": "Plant response rating (0 to 100), Morningglory", "setting": "morningglory; Rate 16 g/ha", "value": 100}, {"measurement": "Plant response rating, Lambsquarter", "setting": "lambsquarters; POSTEMERGENCE, Rate 10 g/ha", "value": 9}, {"measurement": "Plant response rating, Lambsquarter", "setting": "lambsquarters; POSTEMERGENCE, Rate 50 g/ha", "value": 10}, {"measurement": "Plant response rating, Lambsquarter", "setting": "lambsquarters; PREEMERGENCE, Rate 50 g/ha", "value": 10}, {"measurement": "Plant response rating (0 to 100), Rice Japonica", "setting": "rice [2]; [3]", "value": 0}, {"measurement": "Plant response rating (0 to 100), Rice Japonica", "setting": "rice [2]; [4]", "value": 0}, {"measurement": "Plant response rating (0 to 100), Rice Japonica", "setting": "rice [2]; [5]", "value": 50}, {"measurement": "Plant response rating Rice Japonica", "setting": "rice [2]; [6]", "value": 90}, {"measurement": "Plant response rating, Barley", "setting": "barley; POSTEMERGENCE, Rate 10 g/ha", "value": 4}, {"measurement": "Plant response rating, Barley", "setting": "barley; POSTEMERGENCE, Rate 50 g/ha", "value": 6}, {"measurement": "Plant response rating, Barley", "setting": "barley; PREEMERGENCE, Rate 10 g/ha", "value": 0}, {"measurement": "Plant response rating, Barley", "setting": "barley; PREEMERGENCE, Rate 50 g/ha", "value": 2}]}]}
